These results are taken from US8987250B2 (Gilead Sciences, Inc., priority 2012, dated 2015).

SMILES strings stand for the structures.

For one experiment, the system named is HIV-IIIb. The experiment is described as follows: Test A: Antiviral Assay in MT4 Cells. To be noted: Human immunodeficiency virus 1, IIIB, MT4, 120 h. Type of experiment: cell-based. The method in brief:
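MT-4 cells pre-infected with HIV-IIIb (0.004 m.o.i.) at 37 °C, then exposed to 3-fold serial compound dilutions (10 concentrations, quadruplicate) in RPMI 1640/10% FBS. After 5 days at 37 °C, viability read by CellTiter-Glo luminescence.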
As for `Cc1cc2nc(N3CCn4c(nnc4C(F)(F)F)C3)sc2c(-c2ccc(Cl)cc2)c1[C@H](OC(C)(C)C)C(=O)O` [Compound 250, (S)-2-tert-butoxy-2-(7-(4-chlorophenyl)-5-methyl-2-(3-(trifluoromethyl)-5,6-dihydro-[1,2,4]triazolo[4,3-a]pyrazin-7(8H)-yl)benzo[d]thiazol-6-yl)acetic acid], the half-maximal effective concentration (EC50) amounted to 235 nM.

Still in this experiment, the particulars now being: Human immunodeficiency virus 1, IIIB, MT4, 120 h, Table 2; MT-4 cells infected with HIV-IIIb, 5 days of incubation, CellTiter-Glo; read-out: EC50.
For the compound `Cc1cc2nc(-c3nc(N4CCN(C(C)C)CC4)cs3)sc2c(-c2ccc(Cl)cc2)c1[C@H](OC(C)(C)C)C(=O)O` [Compound 246, (S)-2-tert-butoxy-2-(7-(4-chlorophenyl)-2-(4-(4-isopropylpiperazin-1-yl)thiazol-2-yl)-5-methylbenzo[d]thiazol-6-yl)acetic acid], the concentration giving a half-maximal response (EC50) stood at 9 nM.

On to `Cc1cc2nc(-c3nc(N4CCN(C)CC4)cs3)sc2c(-c2ccc(Cl)cc2)c1[C@H](OC(C)(C)C)C(=O)O` [Compound 247], for which the EC50 worked out at 10 nM.

Regarding `Cc1cc2nc(-c3ccc4c(c3)CN(C)C4=O)sc2c(-c2ccc(Cl)cc2)c1[C@H](OC(C)(C)C)C(=O)O` [Compound 248, (S)-2-tert-butoxy-2-(7-(4-chlorophenyl)-5-methyl-2-(2-methyl-1-oxoisoindolin-5-yl)benzo[d]thiazol-6-yl)acetic acid], the EC50 was determined as 13 nM.

Turning to `Cc1cc2nc(-c3cnc4c(c3)c(-c3cccnc3)cn4C)sc2c(-c2ccc(Cl)cc2)c1[C@H](OC(C)(C)C)C(=O)O` [Compound 249, (S)-2-tert-butoxy-2-(7-(4-chlorophenyl)-5-methyl-2-(1-methyl-3-(pyridin-3-yl)-1H-pyrrolo[2,3-b]pyridin-5-yl)benzo[d]thiazol-6-yl)acetic acid], the EC50 was determined as 7 nM.

For the compound `Cc1cc2nc(-c3ccc4c(c3)c(C)nn4C)sc2c(-c2ccc(Cl)cc2)c1[C@H](OC(C)(C)C)C(=O)O` [Compound 254, (S)-2-tert-butoxy-2-(7-(4-chlorophenyl)-2-(1,3-dimethyl-1H-indazol-5-yl)-5-methylbenzo[d]thiazol-6-yl)acetic acid], the EC50 stood at 8 nM.

With `Cc1cc2nc(-c3cc(-c4ccc5c(c4)c(C)nn5C)nc(N4CCN(C)CC4)c3)sc2c(-c2ccc(Cl)cc2)c1[C@H](OC(C)(C)C)C(=O)O` [Compound 255, (S)-2-tert-butoxy-2-(7-(4-chlorophenyl)-2-(2-(1,3-dimethyl-1H-indazol-5-yl)-6-(4-methylpiperazin-1-yl)pyridin-4-yl)-5-methylbenzo[d]thiazol-6-yl)acetic acid], the EC50 stood at 12 nM.

Regarding `Cc1cc2nc(-c3ccc4c(c3)C(C)(C)C(=O)N4C)sc2c(-c2ccc(Cl)cc2)c1[C@H](OC(C)(C)C)C(=O)O` [Compound 256, (S)-2-tert-butoxy-2-(7-(4-chlorophenyl)-5-methyl-2-(1,3,3-trimethyl-2-oxoindolin-5-yl)benzo[d]thiazol-6-yl)acetic acid], the EC50 amounted to 9 nM.

As to `Cc1cc2nc(-c3ccc4c(c3)c(N(C)C)nn4C)sc2c(-c2ccc(Cl)cc2)c1[C@H](OC(C)(C)C)C(=O)O` [Compound 258, (S)-2-tert-butoxy-2-(7-(4-chlorophenyl)-2-(3-(dimethylamino)-1-methyl-1H-indazol-5-yl)-5-methylbenzo[d]thiazol-6-yl)acetic acid], the half-maximal effective concentration (EC50) was 13 nM.

For `Cc1cc2nc(-c3ccc4c(N5CCN(C)CC5)nn(C)c4c3)sc2c(-c2ccc(Cl)cc2)c1[C@H](OC(C)(C)C)C(=O)O` [Compound 259, (S)-2-tert-butoxy-2-(7-(4-chlorophenyl)-5-methyl-2-(1-methyl-3-(4-methylpiperazin-1-yl)-1H-indazol-6-yl)benzo[d]thiazol-6-yl)acetic acid], the EC50 amounted to 12 nM.

Regarding `Cc1cc2nc(-c3ccc4c(c3)c(C3CC3)nn4C)sc2c(-c2ccc(Cl)cc2)c1[C@H](OC(C)(C)C)C(=O)O` [Compound 264, (S)-2-tert-butoxy-2-(7-(4-chlorophenyl)-2-(3-cyclopropyl-1-methyl-1H-indazol-5-yl)-5-methylbenzo[d]thiazol-6-yl)acetic acid], the EC50 came out at 17 nM.

Take `Cc1cc2nc(-c3ccc4nn(C)c(C)c4c3)sc2c(-c2ccc(Cl)cc2)c1[C@H](OC(C)(C)C)C(=O)O` [Compound 265, (S)-2-tert-butoxy-2-(7-(4-chlorophenyl)-2-(2,3-dimethyl-2H-indazol-5-yl)-5-methylbenzo[d]thiazol-6-yl)acetic acid]: the EC50 stood at 15 nM.

In the case of `Cc1cc2nc(-c3ccc4c(N)nn(C)c4c3)sc2c(-c2ccc(Cl)cc2)c1[C@H](OC(C)(C)C)C(=O)O` [Compound 266, (S)-2-(2-(3-amino-1-methyl-1H-indazol-6-yl)-7-(4-chlorophenyl)-5-methylbenzo[d]thiazol-6-yl)-2-tert-butoxyacetic acid], the 50% effective concentration (EC50) was determined as 10 nM.

For `Cc1cc2nc(-c3ccc4c(C5CCN(C)CC5)nn(C)c4c3)sc2c(-c2ccc(Cl)cc2)c1[C@H](OC(C)(C)C)C(=O)O` [Compound 267, (S)-2-tert-butoxy-2-(7-(4-chlorophenyl)-5-methyl-2-(1-methyl-3-(1-methylpiperidin-4-yl)-1H-indazol-6-yl)benzo[d]thiazol-6-yl)acetic acid], the concentration for a half-maximal effect (EC50) was 11 nM.

In the case of `Cc1cc2nc(-c3ccc4c(c3)c(C3CCN(C)CC3)nn4C)sc2c(-c2ccc(Cl)cc2)c1[C@H](OC(C)(C)C)C(=O)O` [Compound 268, (S)-2-tert-butoxy-2-(7-(4-chlorophenyl)-5-methyl-2-(1-methyl-3-(1-methylpiperidin-4-yl)-1H-indazol-5-yl)benzo[d]thiazol-6-yl)acetic acid], the EC50 turned out to be 12 nM.

On to `Cc1cc2nc(-c3ccc4c(c3)c(N3CCN(C(C)C)CC3)nn4C)sc2c(-c2ccc(Cl)cc2)c1[C@H](OC(C)(C)C)C(=O)O` [Compound 269, (S)-2-tert-butoxy-2-(7-(4-chlorophenyl)-2-(3-(4-isopropylpiperazin-1-yl)-1-methyl-1H-indazol-5-yl)-5-methylbenzo[d]thiazol-6-yl)acetic acid], for which the concentration giving a half-maximal response (EC50) is 12 nM.

As for `Cc1cc(C)n(-c2cccc(-c3nc4cc(C)c([C@H](OC(C)(C)C)C(=O)O)c(-c5ccc(Cl)cc5)c4s3)c2)n1` [Compound 272, (S)-2-tert-butoxy-2-(7-(4-chlorophenyl)-2-(3-(3,5-dimethyl-1H-pyrazol-1-yl)phenyl)-5-methylbenzo[d]thiazol-6-yl)acetic acid], the half-maximal effective concentration (EC50) stood at 78 nM.

Take `Cc1cc2nc(-n3ccnc(-c4ccc5c(cnn5C)c4)c3=O)sc2c(-c2ccc(Cl)cc2)c1[C@H](OC(C)(C)C)C(=O)O` [Compound 273, (S)-2-tert-butoxy-2-(7-(4-chlorophenyl)-5-methyl-2-(3-(1-methyl-1H-indazol-5-yl)-2-oxopyrazin-1(2H)-yl)benzo[d]thiazol-6-yl)acetic acid]: the half-maximal effective concentration (EC50) turned out to be 53 nM.

As for `Cc1cc2nc(N3CCN(C)C(c4ccc5c(cnn5C)c4)C3=O)sc2c(-c2ccc(Cl)cc2)c1[C@H](OC(C)(C)C)C(=O)O` (stereo partly drawn) [Compound 274, (2S)-2-tert-butoxy-2-(7-(4-chlorophenyl)-5-methyl-2-(4-methyl-3-(1-methyl-1H-indazol-5-yl)-2-oxopiperazin-1-yl)benzo[d]thiazol-6-yl)acetic acid], the concentration for a half-maximal effect (EC50) amounted to 31 nM.

Consider `Cc1cc2nc(N3CCNC(c4ccc5c(cnn5C)c4)C3=O)sc2c(-c2ccc(Cl)cc2)c1[C@H](OC(C)(C)C)C(=O)O` (stereo partly drawn) [Compound 275, (2S)-2-tert-butoxy-2-(7-(4-chlorophenyl)-5-methyl-2-(3-(1-methyl-1H-indazol-5-yl)-2-oxopiperazin-1-yl)benzo[d]thiazol-6-yl)acetic acid], for which the half-maximal effective concentration (EC50) amounted to 21 nM.

Turning to `Cc1cc2nc(N3CCN(C(=O)OC(C)(C)C)C(c4ccc5c(cnn5C)c4)C3)sc2c(-c2ccc(Cl)cc2)c1[C@H](OC(C)(C)C)C(=O)O` (stereo partly drawn) [Compound 276, (2S)-2-tert-butoxy-2-(2-(4-(tert-butoxycarbonyl)-3-(1-methyl-1H-indazol-5-yl)piperazin-1-yl)-7-(4-chlorophenyl)-5-methylbenzo[d]thiazol-6-yl)acetic acid], the EC50 was found to be 37 nM.

As for `Cc1cc2nc(N3CCNC(c4ccc5c(cnn5C)c4)C3)sc2c(-c2ccc(Cl)cc2)c1[C@H](OC(C)(C)C)C(=O)O` (stereo partly drawn) [Compound 277, (2S)-2-tert-butoxy-2-(7-(4-chlorophenyl)-5-methyl-2-(3-(1-methyl-1H-indazol-5-yl)piperazin-1-yl)benzo[d]thiazol-6-yl)acetic acid], the EC50 turned out to be 26 nM.

As for `Cc1cc2nc(N3CCN(C(C)C)C(c4ccc5c(cnn5C)c4)C3)sc2c(-c2ccc(Cl)cc2)c1[C@H](OC(C)(C)C)C(=O)O` (stereo partly drawn) [Compound 279, (2S)-2-tert-butoxy-2-(7-(4-chlorophenyl)-2-(4-isopropyl-3-(1-methyl-1H-indazol-5-yl)piperazin-1-yl)-5-methylbenzo[d]thiazol-6-yl)acetic acid], the EC50 was 16 nM.

As for `Cc1cc2nc(-c3cccc(-c4cnc(=O)n(C)c4)c3)sc2c(-c2ccc(Cl)cc2)c1[C@H](OC(C)(C)C)C(=O)O` [Compound 280, (S)-2-tert-butoxy-2-(7-(4-chlorophenyl)-5-methyl-2-(3-(1-methyl-2-oxo-1,2-dihydropyrimidin-5-yl)phenyl)benzo[d]thiazol-6-yl)acetic acid], the concentration for a half-maximal effect (EC50) was found to be 248 nM.

For `Cc1cc2nc(-c3nccc(N4CCN(C)CC4)n3)sc2c(-c2ccc(Cl)cc2)c1[C@H](OC(C)(C)C)C(=O)O` [Compound 281, (S)-2-tert-butoxy-2-(7-(4-chlorophenyl)-5-methyl-2-(4-(4-methylpiperazin-1-yl)pyrimidin-2-yl)benzo[d]thiazol-6-yl)acetic acid], the concentration for a half-maximal effect (EC50) was found to be 31 nM.

In the case of `Cc1cc2nc(-c3cncc(N4CCN(C)CC4)n3)sc2c(-c2ccc(Cl)cc2)c1[C@H](OC(C)(C)C)C(=O)O` [Compound 282, (S)-2-tert-butoxy-2-(7-(4-chlorophenyl)-5-methyl-2-(6-(4-methylpiperazin-1-yl)pyrazin-2-yl)benzo[d]thiazol-6-yl)acetic acid], the EC50 turned out to be 3 nM.
